Measurements from patent US20240238220A1, “METHODS FOR TREATING CANCERS” (priority 2023, published 2024).

Tests used:
[1] = system: lung cancer cells, A549, H1299, H1975, CL1-5, and PC-9; assay: methylene blue dye assay, growth of lung cancer cells; type: cell-based; conditions: Homo sapiens; range over A549, H1299, H1975, CL1-5, PC-9; treated 1-5 μM for 1, 2 or 3 days; read-out: IC50 values (50% inhibition of cell viability)
Excerpt: The effects of Compound A and Compound B on the growth of tumor cells were investigated in A549 (adenocarcinomic human alveolar epithelial cell), H1299 (human non-small cell lung carcinoma cell), H1975 (human non-small cell lung carcinoma cell), CL1-5 (human lung adenocarcinoma cell), and PC-9 (human lung adenocarcinoma cell) cell lines. A methylene blue dye assay (G. J. Finlay et al., Anal Biochem. 1984 June; 139(2):272-7) (11) was used to evaluate the inhibitory effect of Compound A and Compound B. Briefly, each of the cell lines with a logarithmic growth phase was cultured at a density of 2×10^4 to 4×10^4 cells per well in a 24-well plate, and treated with 1-5 μM of Compound A or Compound B for 1, 2, or 3 days. At the end of the incubation period, cells were fixed and stained with 0.5% methylene blue containing 50% ethanol for 30 minutes and then were washed and dried. The resulting colored residues were dissolved in 1% N-lauroyl-sarcosine, and optical density was read at 595 nm using a microplate reader. The IC50 value resulting from 50% inhibition of cell viability was calculated graphically as a comparison with vehicle control group. Each point represents the average of at least 3 independent experiments run in quadruple.

[2] = system: TC-1 tumor (mouse lung epithelial cancer cells); assay: mouse model bearing TC-1 tumor; type: in vivo, C57BL/6 mice; conditions: oral gavage 120 mg/Kg/day, p<0.05
Experimental: (§1) The anti-tumor activity of Compound A was evaluated in the human NSCLC xenograft model. Nude mice and C57BL/6 mice were subcutaneously inoculated with H1299 (1×10^6) and mouse lung epithelial cancer cells, TC-1 (2×10^5), respectively. Tumor volumes were measured beginning on day 4 or 5 after tumor inoculation according to the relationship (L×D^2)/2, where L is the long dimension and D is the short dimension. The xenograft tumor-bearing mice were administered by oral gavage with compound A (dissolved in 10% dimethyl sulfoxide (DMSO)/cottonseed oil) at 120 mg/Kg/day for consecutive 5 days of the week. Animal body weight and tumor size were measured twice weekly. ANOVA followed by a multiple comparison Scheff test was conducted to determine significant differences among the treatment group at p<0.05.

[3] = system: H1299 tumor; assay: human NSCLC xenograft model bearing H1299 tumor; type: in vivo, Nude mice; conditions: oral gavage 120 mg/Kg/day; for tumor regression: 5 consecutive days of the week
Experimental: as §1

IC50 [1] [nM] | SMILES | inhibitory activity on tumor [2] | inhibitory activity on tumor ([3]; H1299 tumor, p<0.05) | tumor regression ([3]; day 35) | tumor regression ([3]; day 50)
2000 to 3300 | COc1ccc(/C=C/C(=O)C(CC2CCC2)C(=O)/C=C/c2ccc(OC)c(OC)c2)cc1OC [Compound B, 4-(cyclobutylmethyl)-1,7-bis(3,4-dimethoxyphenyl)hepta-1,6-diene-3,5-dione] |  |  |  | 
1500 to 3000 | COc1ccc(/C=C/C(=O)C(F)(CC2CCC2)C(=O)/C=C/c2ccc(OC)c(OC)c2)cc1OC [Compound A, 4-fluoro-4-cyclobutylmethyl-1,7-bis(3,4-dimethoxyphenyl)hepta-1,6-diene-3,5-dione] | statistically significant inhibitory activity | statistically significant inhibitory activity | around 36% | around 43%
